Measurements published in patent US7745656B2, “Stable no-delivering compounds” (Duke University, priority 1998, dated 2010).

System: E. coli cells (pTC 190)
Assay: Bacteriostatic test: nitrosylated compound solution sprayed onto E. coli culture plates
Type: cell-based
Procedure: Nitrosated 3-mercapto-1,2-propanediol was prepared with TBN bed in the Example 1. The nitrosylated compound was dissolved in 10 mL of deionized water (0.16 M) that had been passed through a CHELEX 100 column and bubbled with argon for 30 minutes. The resulting solution was red.
E. coli cells (pTC 190) were plated onto the culture plates and grown overnight at 40° C. The E. coli cells contained a plasmid encoding for ampicillin resistance. The solution was then sprayed onto a culture plate (LB/Amp/Glucose).
This plate was then sprayed with the nitrosylated compound solution at the 24th hour.

**Q.** With `O=NSCC(O)CO` (stereo not drawn) [nitrosylated 3-mercapto-1,2-propanediol] as the compound, how does the “Bacterial growth on culture plate sprayed with the compound solution” value (0.16 M in deionized water, compound prepared with TBN, LB/Amp/Glucose plate, read after 24 hours) read?
**A.** growth of a few colonies, all localized on one side of the plate

**Q.** And the “Bacterial growth on plate with an established E. coli lawn, sprayed at the 24th hour” value (0.16 M solution sprayed on a continuous lawn, read after another 24 hours)?
**A.** lawn of colonies that was approximately as dense as prior to application

**Q.** And the Overall antibacterial result (conclusion of Example 3)?
**A.** bacteriostatic
